Values of other authors in US20250195352A1, “LIPID FORMULATIONS CONTAINING BIOACTIVE FATTY ACIDS AND OTHER BIOACTIVE AGENTS” (Sciadonics, Inc., priority 2022, published 2025).

Legend:
PPAR receptors = settings: unmetabolized SA; Berger 2002
[1] = tested on: cultured human skin keratinocytes; settings: purified SA taken up by cultured human skin keratinocytes; Berger 2002

binding to PPAR receptors (PPAR receptors): does not bind
Structure (SMILES): CCCCCC=CCC=CCCCCC=CCCCC(=O)O [SA, 5,11,14-eicosatrienoic acid]
ARA levels [1]: reduced
prostaglandin E2 (PGE2) levels [1]: reduced
